Experimental findings from patent publication US8557816B2, “Aurora kinase modulators and method of use” (Amgen Inc., priority 2007, dated 2013) are described below.

For one assay, the target named is T1, AuroraA-TPX2 (Homo sapiens, UniProt O14965).
T1 construct: 20 μL of AuroraA-TPX2 KD GST for a final volume of about 41 μL; GST
T1 sequence (O14965 133-383 limits assumed): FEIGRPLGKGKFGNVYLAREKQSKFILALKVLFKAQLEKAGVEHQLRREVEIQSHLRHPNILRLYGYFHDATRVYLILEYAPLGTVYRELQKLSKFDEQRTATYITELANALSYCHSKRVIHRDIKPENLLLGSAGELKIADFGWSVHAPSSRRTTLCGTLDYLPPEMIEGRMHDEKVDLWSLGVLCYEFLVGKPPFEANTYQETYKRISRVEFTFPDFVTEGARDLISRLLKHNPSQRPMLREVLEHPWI
T1 sequence (Q9ULW0 1-43 partner limits assumed): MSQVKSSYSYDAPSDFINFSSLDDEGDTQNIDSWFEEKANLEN
As to the kind of experiment: AuroraA-TPX2 Homogeneous Time Resolved Fluorescent (HTRF) kinase assay. Particulars: average; read-out: AurA_IC50_IP (uM Avg). The assay is classed as biochemical. As for the experimental part: AuroraA-TPX2-Homogeneous Time Resolved Fluorescent (HTRF) Kinase Assay:
The Aurora-A HTRF assay begins with Aurora-A in the presence of ATP phosphorylating the biotinylated peptide PLK. The reaction incubates for about 120 min. Detection reagents are added to quench the reaction. These agents stop the reaction by diluting out the enzyme and chelating the metals due to the presence of EDTA. After addition, the assay is incubated overnight to allow the detection reagents to equilibrate.
The AuroraA HTRF assay comprises 1 μL of compound in 100% DMSO, 20 μL of ATP and biotinylated PLK, and 20 μL of AuroraA-TPX2 KD GST for a final volume of about 41 μL. The final concentration of PLK is about 1 μM. […] Buffer conditions are as follows: 60 mM HEPES pH 7.5, 25 mM NaCl, 10 mM MgCl, 2 mM DTT, 0.05% BSA.
The assay is quenched and stopped with 160 μL of detection reagent. Detection reagents are as follows: Buffer made of 50 mM Tris, pH 7.5, 100 mM NaCl, 3 mM EDTA, 0.05% BSA, 0.1% Tween20. Added to this buffer prior to reading is Steptavidin allophycocyanin (SA-APC) at a final conc in the assay of 0.0005 mg/mL, and europilated anti-phosphoPLK Ab (Eu-anti-PLK) at a final conc of 0.02 nM.
The assay plate is read in either a Discovery or a RubyStar. The eu-anti-PLK is excited at 320 nm and emits at 615 nm to excite the SA-APC which in turn emits at 655 nm.

The next assay concerns the target T2, AuroraB (Homo sapiens, UniProt Q96GD4).
T2 construct: 20 μL of AuroraB FL H is for a final volume of 41 μL; His
Description: AuroraB Homogeneous Time Resolved Fluorescent (HTRF) kinase assay. Format: biochemical. Particulars: for IC50: average, read-out: AurB_IC50_IP (uM Avg). The procedure: AuroraB-Homogeneous Time Resolved Fluorescent (HTRF) Kinase Assay:
The AuroraB HTRF assay begins with AuroraB in the presence of ATP phosphorylating the biotinylated peptide Histone H3. The reaction incubates for about 90 min. the reaction is quenched by addition of detection reagents, which stop the reaction by diluting out the enzyme and chelating the metals due to the presence of EDTA. After addition, the assay is incubated for about 60 min to allow detection reagents to equilibrate.
The AuroraB HTRF assay comprises 1 μL of compound in 100% DMSO, 20 μL of ATP and biotinylated Histone H3, and 20 μL of AuroraB FL H is for a final volume of 41 μL. The final concentration of Histone H3 is 0.1 μM. […] Buffer conditions are as follows: 50 mM HEPES pH 7.5, 5 mM NaCl, 0.5 mM MgCl, 0.5 mM MnCl, 2 mM DTT, 0.05% BSA.
The assay is quenched and stopped with 160 μL of detection reagent. Detection reagents are as follows: Buffer made of 50 mM Tris, pH 7.5, 100 mM NaCl, 3 mM EDTA, 0.05% BSA, 0.1% Tween20. Added to this buffer prior to reading is Steptavidin allophycocyanin (SA-APC) at a final conc in the assay of 0.001 mg/mL, and europilated anti-phosphoHistoneH3 Ab (Eu-anti-HisH3) at a final conc of 0.064 nM.
The assay plate is read in either a Discovery or a RubyStar. The eu-anti-HisH3 is excited at 320 nm and emits at 615 nm to excite the SA-APC which in turn emits at 655 nm.

pIC50: −log10 of the molar value. Like-named read-outs stand apart in the source and are kept apart here.

T2 sequence (Q96GD4 whole entry): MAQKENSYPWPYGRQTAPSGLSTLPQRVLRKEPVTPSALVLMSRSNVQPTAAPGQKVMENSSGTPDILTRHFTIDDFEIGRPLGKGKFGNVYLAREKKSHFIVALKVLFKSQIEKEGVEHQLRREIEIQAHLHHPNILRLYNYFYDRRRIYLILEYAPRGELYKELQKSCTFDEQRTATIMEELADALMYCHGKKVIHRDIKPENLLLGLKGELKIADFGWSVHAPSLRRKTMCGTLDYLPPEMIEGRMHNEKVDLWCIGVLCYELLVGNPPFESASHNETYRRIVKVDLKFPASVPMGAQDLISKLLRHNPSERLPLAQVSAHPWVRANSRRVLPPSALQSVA

`COc1cnc2c(Oc3ccc(Nc4nnc(-c5cccc(C#N)c5)c5ccccc45)cc3)ccnc2c1` [Example 29, 3-(4-(4-(7-methoxy-1,5-naphthyridin-4-yloxy)phenylamino)phthalazin-1-yl)benzonitrile]: the IC50 turned out to be 0.139 µM at AuroraA-TPX2 and 0.018 µM on AuroraB. Consider `COc1cnc2c(Oc3ccc(Nc4nnc(-c5nccn5C)c5ccccc45)cc3)ccnc2c1` [Example 30, N-(4-(7-methoxy-1,5-naphthyridin-4-yloxy)phenyl)-4-(1-methyl-1H-imidazol-2-yl)phthalazin-1-amine], for which the IC50 at AuroraA-TPX2 turned out to be 1.39 µM. Consider `COc1cnc2c(Oc3ccc(Nc4nnc(C#CC(C)(C)C)c5ccccc45)cc3)ccnc2c1` [Example 31, 4-(3,3-dimethylbut-1-ynyl)-N-(4-(7-methoxy-1,5-naphthyridin-4-yloxy)phenyl)phthalazin-1-amine], for which the IC50 at AuroraA-TPX2 stood at 0.033 µM; on AuroraB, 0.008 µM. Regarding `COc1cnc2c(Oc3ccc(Nc4nnc(N5CCCCCC5)c5ccccc45)cc3)ccnc2c1` [Example 32, 4-(azepan-1-yl)-N-(4-(7-methoxy-1,5-naphthyridin-4-yloxy)phenyl)phthalazin-1-amine], the IC50 is 0.016 µM on AuroraA-TPX2 and 0.009 µM at AuroraB.

For `Clc1ccc(-c2nnc(Nc3ccc(Sc4ccnc5cccnc45)cc3)c3ccccc23)cc1` [Example 33, N-(4-(1,5-naphthyridin-4-ylthio)phenyl)-4-(4-chlorophenyl)phthalazin-1-amine], the IC50 on AuroraA-TPX2 is 0.022 µM; at AuroraB, 0.003 µM. On the same counts, the results for `COc1cnc2c(Nc3cnc(Nc4nnc(-c5ccccc5)c5ccccc45)nc3)ccnc2c1` [Example 36, N^5-(7-Methoxy-1,5-naphthyridin-4-yl)-N^2-(4-phenylphthalazin-1-yl)pyrimidine-2,5-diamine] are 0.038 µM and 0.004 µM.

In the case of `COc1ccc(-c2nnc(Nc3ccc(Oc4ccnc5cc(OC)cnc45)cc3)c3ccccc23)cc1` [Example 37, N-(4-(7-methoxy-1,5-naphthyridin-4-yloxy)phenyl)-4-(4-methoxyphenyl)phthalazin-1-amine], the IC50 on AuroraA-TPX2 came to 0.02 µM; at AuroraB, 0.004 µM. Consider `COc1cnc2c(Oc3ccc(Nc4nnc(-c5ccc(C(C)(C)C)cc5)c5ccccc45)cc3)ccnc2c1` [Example 38, 4-(4-tert-butylphenyl)-N-(4-(7-methoxy-1,5-naphthyridin-4-yloxy)phenyl)phthalazin-1-amine], for which the IC50 at AuroraA-TPX2 turned out to be 0.023 µM; at AuroraB, 0.017 µM. `COc1ccc2c(Oc3ccc(Nc4nnc(-c5ccc(C(F)(F)F)cc5)c5ccccc45)cc3)c(F)cnc2c1` [Example 39, N-(4-(3-fluoro-7-methoxyquinolin-4-yloxy)phenyl)-4-(4-(trifluoromethyl)phenyl) phthalazin-1-amine]: on AuroraB, the IC50 is 1 µM.

For `COc1cnc2c(Nc3ccc(Nc4nnc(-c5ccccc5)c5ccccc45)cc3)ccnc2c1` [Example 40, N^1-(7-methoxy-1,5-naphthyridin-4-yl)-N^4-(4-phenylphthalazin-1-yl)benzene-1,4-diamine], the IC50 at AuroraA-TPX2 is 0.044 µM; on AuroraB it was 0.007 µM. As for `COc1cnc2c(Oc3ccc(Nc4nnc(-c5ccccc5)c5ccccc45)cn3)ccnc2c1` [Example 41, N-(6-(7-methoxy-1,5-naphthyridin-4-yloxy)pyridin-3-yl)-4-phenylphthalazin-1-amine], the results for the IC50 on AuroraA-TPX2 and on AuroraB were 0.079 µM and 0.009 µM, respectively. Turning to `N#Cc1ccc2c(Oc3ccc(Nc4nnc(-c5ccccc5)c5ccccc45)cn3)ccnc2c1` [compound 174, 4-(5-(4-phenylphthalazin-1-ylamino)pyridin-2-yloxy)quinoline-7-carbonitrile], the IC50 on AuroraB came to 5 µM. For the compound `COc1cnc2c(Oc3ccc(Nc4nnc(-c5cccc(N6CCCCC6)c5)c5ccccc45)cc3)ccnc2c1` [compound 197, N-(4-((7-(methyloxy)-1,5-naphthyridin-4-yl)oxy)phenyl)-4-(3-(1-piperidinyl)phenyl)-1-phthalazinamine], on AuroraA-TPX2, the IC50 worked out at 0.034 µM.

Take `Cc1ccc(-c2nnc(Nc3ccc(Oc4ccnc5cc(-c6cncn6C)sc45)cc3)c3ccccc23)nc1` [compound 255, N-(4-((2-(1-methyl-1H-imidazol-5-yl)thieno[3,2-b]pyridin-7-yl)oxy)phenyl)-4-(5-methyl-2-pyridinyl)-1-phthalazinamine]: on AuroraA-TPX2, the IC50 is 0.005 µM.

For `Cn1cncc1-c1cc2nccc(Oc3ccc(Nc4nnc(-c5ccc(Cl)cc5)c5ccccc45)cn3)c2s1` [compound 267, 4-(4-chlorophenyl)-N-(6-((2-(1-methyl-1H-imidazol-5-yl)thieno[3,2-b]pyridin-7-yl)oxy)-3-pyridinyl)-1-phthalazinamine], the IC50 on AuroraA-TPX2 worked out at 0.011 µM. Take `COc1cc2nncc(Oc3ccc(Nc4nnc(-c5ccc(Cl)cc5)c5ccccc45)cc3)c2cc1OC` [compound 282, N-(4-((6,7-bis(methyloxy)-4-cinnolinyl)oxy)phenyl)-4-(4-chlorophenyl)-1-phthalazinamine]: the IC50 at AuroraB amounted to 0.189 µM. On to `Fc1cc(F)c2c(Sc3ccc(Nc4nnc(-c5ccccc5)c5ccccc45)cc3)ccnc2c1` [compound 295, N-(4-((5,7-difluoro-4-quinolinyl)thio)phenyl)-4-phenyl-1-phthalazinamine], for which the pIC50 on AuroraB (given as class symbol, read-out: AurB_IC50_IP (class symbol)) is above 7.00. For `Cc1noc(-c2cc3nccc(Sc4ccc(Nc5nnc(-c6ccccc6)c6ccccc56)cc4)c3s2)n1` [compound 303, N-(4-((2-(3-methyl-1,2,4-oxadiazol-5-yl)thieno[3,2-b]pyridin-7-yl)thio)phenyl)-4-phenyl-1-phthalazinamine], the IC50 at AuroraB was 0.07 µM.

Regarding `Fc1cc(F)c2c(Sc3ccc(Nc4nnc(-c5ccccc5)c5ccccc45)cc3)ccnc2c1` [compound 311, N-(4-((5,7-difluoro-4-quinolinyl)thio)phenyl)-4-phenyl-1-phthalazinamine], the IC50 at AuroraB amounted to 0.093 µM. With `Cc1noc(-c2cc3nccc(Sc4ccc(Nc5nnc(-c6ccccc6)c6ccccc56)cc4)c3s2)n1` [compound 318, N-(4-((2-(3-methyl-1,2,4-oxadiazol-5-yl)thieno[3,2-b]pyridin-7-yl)thio)phenyl)-4-phenyl-1-phthalazinamine], the IC50 at AuroraB amounted to 0.07 µM. On the same count and under the same terms, the figure for `Clc1ccc(-c2nnc(Nc3ccc(Sc4ccnc5ccccc45)cc3)c3ccccc23)cc1` [compound 333, 4-(4-chlorophenyl)-N-(4-(quinolin-4-ylthio)phenyl)phthalazin-1-amine] is 0.036 µM. The same measure, in the same setting: the figure for `Clc1ccc(-c2nnc(Nc3ccc(CN4CCOc5ccccc54)cc3)c3ccccc23)cc1` [compound 349, 4-(4-chlorophenyl)-N-(4-((2,3-dihydrobenzo[b][1,4]oxazin-4-yl)methyl)phenyl)phthalazin-1-amine] is 0.045 µM; for `CNC(=O)c1cc(Sc2ccc(Nc3nnc(-c4ccc(Cl)cc4)c4ccccc34)cc2)ccn1` [compound 360, 4-(4-(4-(4-chlorophenyl)phthalazin-1-ylamino)phenylthio)-N-methylpicolinamide] it is 0.345 µM; for `Clc1ccc(-c2nnc(Nc3ccc(Oc4cnnc5ccc(Br)cc45)cc3)c3ccccc23)cc1` [compound 369, N-(4-(6-bromocinnolin-4-yloxy)phenyl)-4-(4-chlorophenyl)phthalazin-1-amine] it is 3 µM.
